Assay results published in patent US7399869B2, “Fibroblast activation protein inhibitor compounds and methods” (Genentech, Inc., priority 2005, dated 2008).
Residues, ends and D or L forms follow the SMILES beside them. *: point of attachment. CH2Cl = ClC*

What was measured:
FAP [1] = molecular target: T1, FAP (Homo sapiens, UniProt Q12884); test: Inhibition of recombinant FAP by cmk-based irreversible inhibitors; format: biochemical; design: FAP (amino acids 38-760); FLAG (N); made in house; host or cells: 293 cells (secreted, purified from serum-free conditioned media); conditions: for inhibitor concentration-dependent inhibition of FAP: 10, 100, and 500 μM inhibitor, residual activity against L-Ala-Pro-AFC; for time course of FAP activity in the presence of inhibitor: substrate L-Ala-Pro-AFC
T1 sequence (Q12884 38-760): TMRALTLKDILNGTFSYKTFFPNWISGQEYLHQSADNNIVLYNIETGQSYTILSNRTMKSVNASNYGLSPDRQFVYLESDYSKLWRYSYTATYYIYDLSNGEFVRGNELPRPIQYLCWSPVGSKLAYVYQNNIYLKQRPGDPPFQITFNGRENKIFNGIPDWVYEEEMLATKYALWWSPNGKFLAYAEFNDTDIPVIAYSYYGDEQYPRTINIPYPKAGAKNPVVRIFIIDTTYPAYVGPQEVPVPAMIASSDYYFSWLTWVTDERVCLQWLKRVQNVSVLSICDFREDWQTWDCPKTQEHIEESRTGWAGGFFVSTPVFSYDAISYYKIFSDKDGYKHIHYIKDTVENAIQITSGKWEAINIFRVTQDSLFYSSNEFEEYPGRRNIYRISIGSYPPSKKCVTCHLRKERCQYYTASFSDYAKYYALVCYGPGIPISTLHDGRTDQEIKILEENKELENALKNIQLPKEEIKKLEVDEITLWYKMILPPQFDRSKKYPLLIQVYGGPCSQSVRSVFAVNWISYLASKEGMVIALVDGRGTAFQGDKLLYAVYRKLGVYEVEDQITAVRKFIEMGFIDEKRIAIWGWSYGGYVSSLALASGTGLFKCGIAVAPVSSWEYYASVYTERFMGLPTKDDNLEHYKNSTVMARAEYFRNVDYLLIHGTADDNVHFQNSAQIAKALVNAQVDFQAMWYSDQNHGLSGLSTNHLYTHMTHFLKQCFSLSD
Procedure: (§1) The cleavage activities of FAP and DPP-4 in the presence of an irreversible dipeptide inhibitor was measured (FIGS. 9-12). In each time course study (FIGS. 9-15), the protease (FAP, DPP) and the inhibitor compound were incubated together for 4 hours, then residual activity was assayed against substrate.
(§2) The cleavage activities of FAP and DPP-4 in the presence of a tetrapeptide irreversible inhibitor was measured.
(§3) Acetyl-gly-pro-chloromethyl ketone and acetyl-thre-ser-gly-pro-cmk were custom synthesized at Anaspec (San Jose, Calif.). Recombinant FAP (160 nM) and DPP-4 (160 nM) were reacted with Ac-GP-cmk or TSGP-cmk (0-500 μM) at 37° C. in 50 mM Tris-HCl, pH 7.5 containing 100 mM NaCl, and 0.1 mg/ml bovine serum albumin (assay buffer). After 6 hours, residual protease activity against AP-AFC (50 μM) was measured using a Molecular Devices M2 plate reader in the kinetic mode (excitation 400 nm, emission 505 nm). Inhibition data are graphed as residual activity relative to protease activity in the absence of inhibitor.
(§4) Inhibition of FAP and DPP-4 by the cmk-based inhibitors was studied under pseudo-first order conditions. Proteases (100 nM) were reacted with 10 μM inhibitor in assay buffer at 37° C. for increasing amounts of time. Residual protease activity was then measured using AP-AFC (50 μM) as a substrate. Pseudo-first order rate constants were calculated from the slope of plots of Ln (residual protease activity) versus time. Apparent association constants (kass) for inhibition were determined from the relationship kass=kobs/[I], where kobs is the pseudo-first order rate constant and [I] is the inhibitor concentration.

DPP-4 [2] = molecular target: T2, DPP-4 (Homo sapiens, UniProt P27487); test: Inhibition of recombinant DPP-4 by cmk-based irreversible inhibitors; format: biochemical; design: DPP-4 (amino acids 39-766); FLAG (N); made in house; host or cells: 293 cells (secreted, purified from serum-free conditioned media); conditions: for inhibition of DPP-4: 10, 100, and 500 μM inhibitor, residual activity against L-Ala-Pro-AFC; for time course of DPP-4 activity in the presence of inhibitor: substrate L-Ala-Pro-AFC
T2 sequence (P27487 39-766): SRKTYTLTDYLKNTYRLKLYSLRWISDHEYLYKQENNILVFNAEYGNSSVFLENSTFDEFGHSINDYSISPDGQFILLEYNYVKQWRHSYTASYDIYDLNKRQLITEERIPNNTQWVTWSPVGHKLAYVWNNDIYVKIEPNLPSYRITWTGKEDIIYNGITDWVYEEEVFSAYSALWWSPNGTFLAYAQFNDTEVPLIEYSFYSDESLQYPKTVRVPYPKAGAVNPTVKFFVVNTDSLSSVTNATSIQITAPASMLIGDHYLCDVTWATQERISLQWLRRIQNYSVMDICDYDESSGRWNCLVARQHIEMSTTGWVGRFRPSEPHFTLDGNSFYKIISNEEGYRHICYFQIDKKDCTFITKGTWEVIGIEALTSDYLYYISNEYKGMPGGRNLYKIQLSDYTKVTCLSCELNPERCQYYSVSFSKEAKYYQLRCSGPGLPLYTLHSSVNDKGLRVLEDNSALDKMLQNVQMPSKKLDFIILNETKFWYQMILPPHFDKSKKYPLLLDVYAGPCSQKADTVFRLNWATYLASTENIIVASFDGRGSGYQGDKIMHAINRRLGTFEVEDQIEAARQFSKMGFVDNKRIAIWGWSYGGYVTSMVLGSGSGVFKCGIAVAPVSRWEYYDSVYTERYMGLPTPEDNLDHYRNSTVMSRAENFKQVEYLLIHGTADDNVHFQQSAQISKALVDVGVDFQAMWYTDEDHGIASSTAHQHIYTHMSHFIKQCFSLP
Procedure: as §1, §2, §3, §4

DPP-4 [3] = molecular target: T2, DPP-4; conditions: FIG. 13
FAP [4] = molecular target: T1, FAP; conditions: FIG. 13
DPP-4 [5] = molecular target: T2, DPP-4; test: Relative cleavage rates of coumarin (AMCC) dipeptide substrates by DPP-4; format: biochemical; design: DPP-4 (amino acids 39-766); FLAG (N); made in house; host or cells: 293 cells (secreted, purified from serum-free conditioned media); conditions: P2-Pro-AMCC substrates; hydrolysis rates normalized to Gly-Pro-AMCC
Procedure: (§5) The relative cleavage rates of a variety of N-blocked, C-terminal coumarin (AMCC) Gly-Pro dipeptide substrates 6 were measured. The rates were normalized to N-unblocked Gly-Pro-AMCC for FAP and DPP-4.
(§6) To examine whether FAP could cleave other N-substituted-Gly-Pro-based substrates, N-methyl-, formyl-, succinyl-, benzyloxycarbonyl-(Z-) and biotinyl-Gly-Pro-AMCC substrates 6 were synthesized and reacted with FAP (37 nM) and DPP-4 (6.8 nM).
(§7) Amino-terminus P2 was varied with the L-amino acids: alanine, aspartic acid, glutamic acid, phenylalanine, glycine, histidine, isoleucine, lysine, leucine, methionine, asparagine, proline, glutamine, arginine, serine, threonine, valine, tryptophan, and tyrosine (from left). AMCC=2-(7-amino-4-methyl-2-oxo-2H-chromen-3-yl)acetamide. For both enzymes, the amino acid adjacent in the model dipeptide substrate had little effect where the amino-terminus was unblocked. Hydrolysis rates of other P2-Pro-AMCC substrates by FAP and DPP-4 relative to Gly-Pro-AMCC include the following in Table 6:
(§8) Protease Assays—Protease activity was monitored continuously using a SpectraMax M2 microplate reader (Molecular Devices Corp., Sunnyvale Calif.) in the kinetic mode. Assays were conducted at 23° C. in 50 mM Tris (pH 7.4), 100 mM NaCl, 1 mM EDTA. The excitation/emission wavelengths for the different fluorogenic substrates were 360/460 nm (AMC), 400/505 nm (AFC), 340/425 nm (MNA), 340/510 nm (EDANS), and 337/425 nm (Abs). Standard curves of the appropriate fluorescent product versus concentration were used to convert relative fluorescence units to nmol of product produced. Substrates in the X-Pro-AMC library were used in rate assays at 5 μM final concentration. […] The kinetic parameters were calculated from Michaelis-Menten plots (V0 versus [S]) with nonlinear regression analysis using GraphPad software. kcat values were calculated under the assumption that each protease was 100% active.

DPP-4 [6] = molecular target: T2, DPP-4; test: Inhibition of DPP-4 activity against Ala-Pro-AFC by P2-Pro-AMCC compounds; format: biochemical; design: DPP-4 (amino acids 39-766); FLAG (N); made in house; host or cells: 293 cells (secreted, purified from serum-free conditioned media)
Procedure: (§9) Inhibition of FAP and DPP-4 activity against Ala-Pro-AFC by P2-Pro-AMCC compounds was measured at various concentration of the P2-Pro-AMCC compounds in Table 7.

FAP [7] = molecular target: T1, FAP; test: Relative cleavage rates of coumarin (AMCC) dipeptide substrates by FAP; format: biochemical; design: FAP (amino acids 38-760); FLAG (N); made in house; host or cells: 293 cells (secreted, purified from serum-free conditioned media); conditions: P2-Pro-AMCC substrates; hydrolysis rates normalized to Gly-Pro-AMCC
Procedure: as §5, §6, §7, §8

FAP [8] = molecular target: T1, FAP; test: Inhibition of FAP activity against Ala-Pro-AFC by P2-Pro-AMCC compounds; format: biochemical; design: FAP (amino acids 38-760); FLAG (N); made in house; host or cells: 293 cells (secreted, purified from serum-free conditioned media)
Procedure: as §9

[9] = test system: syngeneic tumors derived from fibrosarcoma, lymphoma, melanoma, and mastocytoma cell lines; conditions: oral administration to mice; cited from earlier work
tumor cells = conditions: cited from earlier work
DPP-4 [10] = molecular target: T2, DPP-4; test: Inhibition of DPP-4 by N-blocked boroPro compounds (progress curves); format: biochemical; design: DPP-4 (amino acids 39-766); FLAG (N); made in house; host or cells: 293 cells (secreted, purified from serum-free conditioned media); conditions: for FAP/DPP-4 Selectivity: DPP-4 Ki relative to FAP Ki; for Ki: cleavage of substrate L-Ala-Pro-AFC
Procedure: (§10) The steady states of product formation in the absence (V0) and presence of inhibitor (Vi) were used to calculate apparent inhibition constants (Kiapp) by plotting V0/Vi−1 against inhibitor concentration.
(§11) Briefly, proteases were added to a reaction mixture containing inhibitor and substrate (Ac-Ala-AMC for APH, Z-Gly-Pro-AMC for POP, and Ala-Pro-AFC for all others) in assay buffer at 23° C. Protease activity was followed continuously as described above to monitor time-dependent inhibition. Data were plotted as V0/Vi−1 versus [I], where V0 is the rate if substrate hydrolysis in the absence of inhibitor, Vi is the steady state rate of substrate hydrolysis in the presence of inhibitor and [I] is the concentration of Ac-Gly-BoroPro.
(§12) KI values for inhibition of proteases by 5 were determined using the method of progress curves. Briefly, proteases (10-100 nM) were added to a reaction mixture containing inhibitor 5 (0-10 μM) and substrate AP-AFC in assay buffer at 23° C. […] Data were plotted as V0/Vi−1 versus [I], where V0 is the rate if substrate hydrolysis in the absence of inhibitor, Vi is the steady state rate of substrate hydrolysis in the presence of inhibitor and [I] is the concentration of 5. […] Ki, the true equilibrium inhibition constant was determined according to the following relationship: Ki=Kobs/(1+[S]/Km), where [S] is the concentration of substrate used in the assay and Km is the Michaelis constant for substrate cleavage.

FAP [11] = molecular target: T1, FAP; test: Inhibition of FAP by N-blocked boroPro compounds (progress curves); format: biochemical; design: FAP (amino acids 38-760); FLAG (N); made in house; host or cells: 293 cells (secreted, purified from serum-free conditioned media); conditions: cleavage of substrate L-Ala-Pro-AFC
Procedure: as §10, §11, §12

Compound | Relative Hydrolysis rate by DPP-4 (DPP-4 [5]) | Ki (DPP-4 [6]) [nM] | Relative Hydrolysis rate by FAP (FAP [7]) | Ki (FAP [8]) [nM] | FAP/DPP-4 Selectivity (DPP-4 [10]) | Ki (DPP-4 [10]) [nM] | Ki (FAP [11]) [nM] | further results
CC(=O)NCC(=O)N1CCC[C@H]1C(=O)CCl [Ac-Gly-Pro-cmk, Acetyl-gly-pro-chloromethyl ketone] (Ac-Gly-Pro-CH2Cl) |  |  |  |  |  |  |  | inhibitor concentration-dependent inhibition of FAP (FAP [1]): almost complete; time course of FAP activity in the presence of inhibitor (FAP [1]): time-dependent; inhibition of DPP-4 (DPP-4 [2]): not inhibited; time course of DPP-4 activity in the presence of inhibitor (DPP-4 [2]): not time-dependent inhibited
cyclohexylglycine-2-cyano-proline [CHCP] |  |  |  |  |  |  |  | effect of inhibitor concentration on cleavage of AP-AFC by DPP-4 (DPP-4 [3]): inhibitor concentration dependent cleavage by DPP-4; effect of inhibitor concentration on cleavage of AP-AFC by FAP (FAP [4]): not inhibitor concentration dependent cleavage by FAP
CC(=O)NC(C)C(=O)N1CCCC1C(=O)Nc1ccc2c(C)c(CC(N)=O)c(=O)oc2c1 [Ac-(D-Ala)] | 1 | > 2000 | 3 | 1000 |  |  |  | 
NCCC(=O)O [β-Ala] | 1 | 2000 | 2 | 340 |  |  |  | 
CC(C)[C@H](N)C(=O)N1CCC[C@H]1B(O)O [PT-100, Val-boro-Pro] |  |  |  |  |  |  |  | growth of syngeneic tumors [9]: slowed growth; direct cytotoxic effect on tumor cells (tumor cells): no direct cytotoxic effect
O=C(CNCc1ccccc1)N1CCCC1B(O)O (stereo not drawn) [N-benzyl-Gly-boroPro] |  |  |  |  | 1.2 | 56 | 48 | 
CC(=O)NC(C(=O)NC(CO)C(=O)NCC(=O)N1CCCC1C(=O)CCl)C(C)O (stereo not drawn) [TSGP-cmk, acetyl-thre-ser-gly-pro-cmk] (Ac-TSGP-CH2Cl; configuration not given here) |  |  |  |  |  |  |  | inhibitor concentration-dependent inhibition of FAP (FAP [1]): almost complete; time course of FAP activity in the presence of inhibitor (FAP [1]): time-dependent; inhibition of DPP-4 (DPP-4 [2]): not substantially inhibited; time course of DPP-4 activity in the presence of inhibitor (DPP-4 [2]): not time-dependent inhibited
Cc1cccc(C)c1C(=O)NCC(=O)N1CCCC1B(O)O (stereo not drawn) [N-(2,6-dimethylbenzoyl)-Gly-boroPro] |  |  |  |  | 44 | 1100 | 25 | 
CC(=O)NC(CO)C(=O)N1CCCC1C(=O)Nc1ccc2c(C)c(CC(N)=O)c(=O)oc2c1 [Ac-(D-Ser)] | 0 | > 2000 | 3 | 200 |  |  |  | 
CC(=O)NC(CO)C(=O)NCC(=O)N1CCCC1B(O)O (stereo not drawn) [N-Ac-Ser-Gly-boroPro] |  |  |  |  | >3 | > 40000 | 16500 | 
